According to ChEMBL document CHEMBL1201862, “PubChem BioAssay data set” (2004):
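The compound was tested at five concentrations on cells cultured in 96-well plates, with a 48-hour exposure period. GI50: concentration for 50% inhibition of growth.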 Calls of active or inactive are those of the source. Cut-off read from the data, not from the text of the source: active = GI50 up to about 1.1 µM and inactive = higher.

How the values were obtained:
Assay in all cases: NCI tumour cell line growth inhibition, 48 h
786-0 = tested on: 786-0
A498 = tested on: A498
A549 = tested on: A549
ACHN = tested on: ACHN
CAKI-1 = tested on: CAKI-1
CCRF-CEM = tested on: CCRF-CEM
COLO 205 = tested on: COLO 205
DLD-1 = tested on: DLD-1
DMS-114 = tested on: DMS-114
DMS-273 = tested on: DMS-273
EKVX = tested on: EKVX
HCC 2998 = tested on: HCC 2998
HCT-116 = tested on: HCT-116
HCT-15 = tested on: HCT-15
HL-60 = tested on: HL-60
HOP-18 = tested on: HOP-18
HOP-62 = tested on: HOP-62
HOP-92 = tested on: HOP-92
HT-29 = tested on: HT-29
IGROV-1 = tested on: IGROV-1
K562 = tested on: K562
KM-20L2 = tested on: KM-20L2
KM12 = tested on: KM12
LOX IMVI = tested on: LOX IMVI
LXFL 529 = tested on: LXFL 529
M14 = tested on: M14
M19-MEL = tested on: M19-MEL
MOLT-4 = tested on: MOLT-4
Malme-3M = tested on: Malme-3M
NCI-H226 = tested on: NCI-H226
NCI-H23 = tested on: NCI-H23
NCI-H460 = tested on: NCI-H460
NCI-H522 = tested on: NCI-H522
OVCAR-3 = tested on: OVCAR-3
OVCAR-4 = tested on: OVCAR-4
OVCAR-5 = tested on: OVCAR-5
OVCAR-8 = tested on: OVCAR-8
RPMI-8226 = tested on: RPMI-8226
RXF 393 = tested on: RXF 393
RXF 631 = tested on: RXF 631
SF-268 = tested on: SF-268
SF-295 = tested on: SF-295
SF-539 = tested on: SF-539
SK-MEL-28 = tested on: SK-MEL-28
SK-MEL-2 = tested on: SK-MEL-2
SK-MEL-5 = tested on: SK-MEL-5
SK-OV-3 = tested on: SK-OV-3
SN12C = tested on: SN12C
SNB-75 = tested on: SNB-75
SNB-78 = tested on: SNB-78
SR = tested on: SR
SW-620 = tested on: SW-620
TK-10 = tested on: TK-10
U-251 = tested on: U-251
UACC-257 = tested on: UACC-257
UACC-62 = tested on: UACC-62
UO-31 = tested on: UO-31
XF498 = tested on: XF498

Measured: GI50

COc1cc(OC(=O)c2c(O)cc(O)c(O)c2C)cc(C)c1C(=O)Oc1cc(C)c(C(=O)O)c(O)c1
inactive: 786-0 > 100 µM | A498 > 100 µM | A549 > 100 µM | ACHN > 100 µM | CAKI-1 > 100 µM | CCRF-CEM > 100 µM | COLO 205 > 100 µM | DLD-1 > 100 µM | DMS-114 > 100 µM | DMS-273 > 100 µM | EKVX > 100 µM | HCC 2998 > 100 µM | HCT-116 > 100 µM | HL-60 > 100 µM | HOP-18 > 100 µM | HOP-62 > 100 µM | HOP-92 > 100 µM | HT-29 > 100 µM | IGROV-1 > 100 µM | K562 > 100 µM | KM-20L2 > 100 µM | KM12 > 100 µM | LOX IMVI > 100 µM | LXFL 529 > 100 µM | M14 > 100 µM | M19-MEL > 100 µM | MOLT-4 > 100 µM | Malme-3M > 100 µM | NCI-H226 > 100 µM | NCI-H23 > 100 µM | NCI-H460 > 100 µM | NCI-H522 > 100 µM | OVCAR-3 > 100 µM | OVCAR-4 > 100 µM | OVCAR-5 > 100 µM | OVCAR-8 > 100 µM | RPMI-8226 > 100 µM | RXF 393 > 100 µM | RXF 631 > 100 µM | SF-268 > 100 µM | SF-295 > 100 µM | SF-539 > 100 µM | SK-MEL-28 > 100 µM | SK-MEL-2 > 100 µM | SK-MEL-5 > 100 µM | SK-OV-3 > 100 µM | SN12C > 100 µM | SNB-75 > 100 µM | SNB-78 > 100 µM | SR > 100 µM | SW-620 > 100 µM | TK-10 > 100 µM | U-251 > 100 µM | UACC-257 > 100 µM | UACC-62 > 100 µM | UO-31 > 100 µM | XF498 > 100 µM
> 100 µM: HCT-15
